# In PubChem BioAssay AID1259411 (Chemical Carcinogenesis Research Information System (CCRIS), 2018):
# Active and inactive are the calls of the source. No rule for the calls is given here.
# System: rodent carcinogenicity bioassays, tumor incidence
# Assay: CCRIS carcinogenicity studies
# In short: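 NCI-built, expert-reviewed records of carcinogenicity and related test outcomes (mutagenicity, tumor promotion/inhibition) compiled from published and report sources, historical span 1985-2011, not updated.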
smiles,measurement,setting,value
Cc1cc2c3c(cccc3c1)-c1ccccc1-2,carcinogen call,"Species: MOUSE, Strain/Sex: CD-1/FEMALE, Route: INTRAPERITONEAL, Dose: 0, 3.46, 17.3 UMOL (TOTAL DOSE) IN DMSO ADMINISTERED ON DAYS 1,8, AND 15 OF LIFE (STUDY DURATION: 52 WK), Dose: 0, 3.46, 17.3 UMOL (TOTAL DOSE) IN DMSO ADMINISTERED ON DAYS 1,8, AND 15 OF LIFE (STUDY DURATION: 52 WK), Tumor Site: Type of Lesion: LUNG: TUMORS, LIVER: TUMORS",active; positive
same,carcinogen call,"Species: MOUSE, Strain/Sex: CD-1/MALE, Route: INTRAPERITONEAL, Dose: 0, 3.46, 17.3 UMOL (TOTAL DOSE) IN DMSO ADMINISTERED ON DAYS 1,8, AND 15 OF LIFE (STUDY DURATION: 52 WK), Dose: 0, 3.46, 17.3 UMOL (TOTAL DOSE) IN DMSO ADMINISTERED ON DAYS 1,8, AND 15 OF LIFE (STUDY DURATION: 52 WK), Tumor Site: Type of Lesion: LUNG: TUMORS, LIVER: TUMORS",active; positive
CN(C)/C=N/c1nnc(/C=C/c2ccc([N+](=O)[O-])o2)o1,carcinogen call,"Species: RAT, Route: ORAL, Tumor Site: Type of Lesion: MAMMARY GLAND, INTESTINES",active; positive
CCCCCc1cc(O)c2c(c1)OC(C)(C)[C@@H]1CCC(C)=C[C@@H]21,carcinogen call,"Species: MOUSE, Strain/Sex: B6C3F1/FEMALE, Route: GAVAGE, Dose: 0, 125, 250, 500 MG/KG BW IN CORN OIL FOR 105-106 WK (STUDY DURATION: 105-106 WK), Dose: 0, 125, 250, 500 MG/KG BW IN CORN OIL FOR 105-106 WK (STUDY DURATION: 105-106 WK), Tumor Site: Type of Lesion: THYROID GLAND: FOLLICULAR CELL ADENOMA",equivocal
same,carcinogen call,"Species: MOUSE, Strain/Sex: B6C3F1/MALE, Route: GAVAGE, Dose: 0, 125, 250, 500 MG/KG BW IN CORN OIL FOR 104-105 WK (STUDY DURATION: 104-105 WK), Dose: 0, 125, 250, 500 MG/KG BW IN CORN OIL FOR 104-105 WK (STUDY DURATION: 104-105 WK), Tumor Site: Type of Lesion: THYROID GLAND: FOLLICULAR CELL ADENOMA",equivocal
same,carcinogen call,"Species: RAT, Strain/Sex: F344/FEMALE, Route: GAVAGE, Dose: 0, 12.5, 25, 50 MG/KG BW IN CORN OIL FOR 104-105 WK (STUDY DURATION: 104-105 WK), Dose: 0, 12.5, 25, 50 MG/KG BW IN CORN OIL FOR 104-105 WK (STUDY DURATION: 104-105 WK)",inactive; negative
same,carcinogen call,"Species: RAT, Strain/Sex: F344/MALE, Route: GAVAGE, Dose: 0, 12.5, 25, 50 MG/KG BW IN CORN OIL FOR 104-105 WK (STUDY DURATION: 104-105 WK), Dose: 0, 12.5, 25, 50 MG/KG BW IN CORN OIL FOR 104-105 WK (STUDY DURATION: 104-105 WK)",inactive; negative
CN(C)c1nc(=O)n(C2CCCCC2)c(=O)n1C,carcinogen call,"Species: DOG, Strain/Sex: BEAGLE/FEMALE, Route: ORAL, Dose: 0, 200, 1000 PPM IN DIET FOR 90 D OR 5000 PPM FOR 1 WK, THEN 2500 PPM FOR 4 D IN WK 2 THEN 3750 PPM FOR 3 D FOLLOWED BY, Dose: 0, 200, 1000 PPM IN DIET FOR 90 D OR 5000 PPM FOR 1 WK, THEN 2500 PPM FOR 4 D IN WK 2 THEN 3750 PPM FOR 3 D FOLLOWED BY",inactive; negative
same,carcinogen call,"Species: DOG, Strain/Sex: BEAGLE/MALE, Route: ORAL, Dose: 0, 200, 1000 PPM IN DIET FOR 90 D OR 5000 PPM FOR 1 WK, THEN 2500 PPM FOR 4 D IN WK 2 THEN 3750 PPM FOR 3 D FOLLOWED BY, Dose: 0, 200, 1000 PPM IN DIET FOR 90 D OR 5000 PPM FOR 1 WK, THEN 2500 PPM FOR 4 D IN WK 2 THEN 3750 PPM FOR 3 D FOLLOWED BY",inactive; negative
same,carcinogen call,"Species: MOUSE, Strain/Sex: CD-1/FEMALE, Route: ORAL, Dose: 0, 200, 2500, 10000 PPM IN DIET FOR 2 YR (STUDY DURATION: 2 YR), Dose: 0, 200, 2500, 10000 PPM IN DIET FOR 2 YR (STUDY DURATION: 2 YR)",inactive; negative
same,carcinogen call,"Species: MOUSE, Strain/Sex: CD-1/MALE, Route: ORAL, Dose: 0, 200, 2500, 10000 PPM IN DIET FOR 2 YR (STUDY DURATION: 2 YR), Dose: 0, 200, 2500, 10000 PPM IN DIET FOR 2 YR (STUDY DURATION: 2 YR)",inactive; negative
same,carcinogen call,"Species: RAT, Strain/Sex: CRL-CD/FEMALE, Route: ORAL, Dose: 0, 200, 1000, 2500 PPM IN DIET FOR 2 YR (STUDY DURATION: 2 YR), Dose: 0, 200, 1000, 2500 PPM IN DIET FOR 2 YR (STUDY DURATION: 2 YR)",inactive; negative
same,carcinogen call,"Species: RAT, Strain/Sex: CRL-CD/MALE, Route: ORAL, Dose: 0, 200, 1000, 2500 PPM IN DIET FOR 2 YR (STUDY DURATION: 2 YR), Dose: 0, 200, 1000, 2500 PPM IN DIET FOR 2 YR (STUDY DURATION: 2 YR)",inactive; negative
CCNC(=O)N(C)N=O,carcinogen call,"Species: RAT, Strain/Sex: F344/FEMALE, Route: GAVAGE, Dose: 0, 20, 40 UMOL/WK IN CORN OIL/ETHYL ACETATE (2: 1) FOR 30 WK (LOW DOSE) OR 15 WK (HIGH DOSE) FOR TOTAL DOSES OF 0, 0.6;, Dose: 0, 20, 40 UMOL/WK IN CORN OIL/ETHYL ACETATE (2: 1) FOR 30 WK (LOW DOSE) OR 15 WK (HIGH DOSE) FOR TOTAL DOSES OF 0, 0.6;, Tumor Site: Type of Lesion: NERVOUS SYSTEM: TUMOR, THYMUS: TUMOR",active; positive
same,carcinogen call,"Species: RAT, Strain/Sex: F344/FEMALE, Route: ORAL, Dose: 0, 20, 40 UMOL/WK IN DRINKING WATER FOR 30 WK FOR TOTAL DOSES OF 0, 0.6, 1.2 MMOL (STUDY DURATION: LIFETIME), Dose: 0, 20, 40 UMOL/WK IN DRINKING WATER FOR 30 WK FOR TOTAL DOSES OF 0, 0.6, 1.2 MMOL (STUDY DURATION: LIFETIME), Tumor Site: Type of Lesion: NERVOUS SYSTEM: TUMOR, KIDNEY: TUMOR",active; positive
same,carcinogen call,"Species: RAT, Strain/Sex: F344/MALE, Route: GAVAGE, Dose: 0, 20, 40 UMOL/WK IN CORN OIL/ETHYL ACETATE (2: 1) FOR 30 WK FOR TOTAL DOSES OF 0, 0.6, 1.2 MMOL (STUDY DURATION: LIFETI, Dose: 0, 20, 40 UMOL/WK IN CORN OIL/ETHYL ACETATE (2: 1) FOR 30 WK FOR TOTAL DOSES OF 0, 0.6, 1.2 MMOL (STUDY DURATION: LIFETI, Tumor Site: Type of Lesion: NERVOUS SYSTEM: TUMOR, TESTIS: MESOTHELIOMA",active; positive
same,carcinogen call,"Species: RAT, Strain/Sex: F344/MALE, Route: ORAL, Dose: 0, 20, 40 UMOL/WK IN DRINKING WATER FOR 30 WK FOR TOTAL DOSES OF 0, 0.6, 1.2 MMOL (STUDY DURATION: LIFETIME), Dose: 0, 20, 40 UMOL/WK IN DRINKING WATER FOR 30 WK FOR TOTAL DOSES OF 0, 0.6, 1.2 MMOL (STUDY DURATION: LIFETIME), Tumor Site: Type of Lesion: LUNG: TUMOR, NERVOUS SYSTEM: TUMOR",active; positive
O=[N+]([O-])c1cc2cccc3ccc4cccc1c4c32,carcinogen call,"Species: RAT, Strain/Sex: STRAIN-CD/FEMALE, Route: INJECTION, Dose: 0, 0.1 ML IN 20.3 UMOL/ML DMSO INJECTED INTO MAMMARY TISSUE OF THE 3 LEFT THORACIC NIPPLES FOLLOWED THE NEXT D BY SIMILA, Tumor Site: Type of Lesion: MAMMARY GLAND: FIBROADENOMA, ADENOCARCINOMA",active; positive
same,carcinogen call,"Species: RAT, Strain/Sex: STRAIN-CD/FEMALE, Route: INJECTION, Dose: 0, 0.1 ML OF A 20.3 UMOL/ML SOLUTION IN DMSO INJECTED INTO MAMMARY TISSUE UNDERLYING 3 LEFT THORACIC NIPPLES THE FOLLOWI, Tumor Site: Type of Lesion: MAMMARY GLAND: FIBROADENOMA",active; positive
same,carcinogen call,"Species: RAT, Strain/Sex: STRAIN-CD/FEMALE, Route: INTRAPERITONEAL, Dose: 0, 67 UMOL/KG BW IN DMSO 3/WK FOR 4 WK (STUDY DURATION: 61 WK), Tumor Site: Type of Lesion: MAMMARY GLAND: ADENOCARCINOMA",active; positive
same,carcinogen call,"Species: RAT, Strain/Sex: STRAIN-CD/FEMALE, Route: INTRAPERITONEAL, Dose: 0, 67 UMOL/KG/BW IN 25 UMOL/ML DMSO 3/WK FOR 4 WK (TOTAL DOSE: 0; 119 UMOL) ADMINISTERED TO WEANLING RATS (STUDY DURATIO, Dose: 0, 67 UMOL/KG/BW IN 25 UMOL/ML DMSO 3/WK FOR 4 WK (TOTAL DOSE: 0; 119 UMOL) ADMINISTERED TO WEANLING RATS (STUDY DURATIO, Tumor Site: Type of Lesion: MAMMARY GLAND: ADENOCARCINOMA",active; positive
same,carcinogen call,"Species: RAT, Strain/Sex: STRAIN-CD/FEMALE, Route: SUBCUTANEOUS, Dose: 0, 75 UMOL (TOTAL DOSE) ADMINISTERED OVER 8 WK BEGINNING WITHIN 24 HR OF BIRTH (STUDY DURATION: 86 WK), Tumor Site: Type of Lesion: MAMMARY GLAND: TUMOR, INTEGUMENTARY SYSTEM: MALIGNANT FIBROUS HISTIOCYTOMA, HEMATOPOIETIC SYSTEM: LEUKEMIA, ZYMBAL GLAND, Tumor Site: Type of Lesion: MAMMARY GLAND: TUMOR, INTEGUMENTARY SYSTEM: MALIGNANT FIBROUS HISTIOCYTOMA, HEMATOPOIETIC SYSTEM: LEUKEMIA, ZYMBAL GLAND",active; positive
